The source made the active and inactive calls.
Legend:
Nonstructural protein 1 = Nonstructural protein 1 (Influenza A virus, UniProt Q194T2); type: functional, Influenza A virus (A/California/07/2009(H1N1))
Caspase-6 = target: T1, Caspase-6 (Homo sapiens, UniProt P55212); experiment: human caspase-6 inhibitors, dose response, biochemical, VEID-R110 fluorescence, cherry-pick (AID 720632)
T1 sequence (P55212 whole entry): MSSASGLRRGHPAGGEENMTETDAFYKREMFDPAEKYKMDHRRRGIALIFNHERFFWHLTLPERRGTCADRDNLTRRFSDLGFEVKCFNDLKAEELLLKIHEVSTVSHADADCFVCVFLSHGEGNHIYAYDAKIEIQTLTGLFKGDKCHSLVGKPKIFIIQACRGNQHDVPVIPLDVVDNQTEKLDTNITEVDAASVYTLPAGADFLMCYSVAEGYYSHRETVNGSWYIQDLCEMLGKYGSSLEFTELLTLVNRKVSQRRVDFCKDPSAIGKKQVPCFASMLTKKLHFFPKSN

[1] = target: T2, Sentrin-specific protease 8 (Homo sapiens, UniProt Q96LD8); type: functional
T2 sequence (Q96LD8 whole entry): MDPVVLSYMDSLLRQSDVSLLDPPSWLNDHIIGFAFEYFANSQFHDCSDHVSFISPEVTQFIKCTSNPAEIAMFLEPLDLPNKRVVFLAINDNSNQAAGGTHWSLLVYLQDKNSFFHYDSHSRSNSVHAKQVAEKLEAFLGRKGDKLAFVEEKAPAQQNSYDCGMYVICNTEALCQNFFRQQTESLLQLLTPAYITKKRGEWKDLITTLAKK

[2] = target: T2, Sentrin-specific protease 8; experiment: SENP8 protease inhibitors, SAR follow-up, biochemical, luminescence (AID 504501); type: functional
[3] = target: T3, Sentrin-specific protease 7 (Homo sapiens, UniProt Q9BQF6); experiment: SENP7 protease inhibitors, SAR follow-up, biochemical, luminescence (AID 504497); type: functional
T3 sequence (Q9BQF6 whole entry): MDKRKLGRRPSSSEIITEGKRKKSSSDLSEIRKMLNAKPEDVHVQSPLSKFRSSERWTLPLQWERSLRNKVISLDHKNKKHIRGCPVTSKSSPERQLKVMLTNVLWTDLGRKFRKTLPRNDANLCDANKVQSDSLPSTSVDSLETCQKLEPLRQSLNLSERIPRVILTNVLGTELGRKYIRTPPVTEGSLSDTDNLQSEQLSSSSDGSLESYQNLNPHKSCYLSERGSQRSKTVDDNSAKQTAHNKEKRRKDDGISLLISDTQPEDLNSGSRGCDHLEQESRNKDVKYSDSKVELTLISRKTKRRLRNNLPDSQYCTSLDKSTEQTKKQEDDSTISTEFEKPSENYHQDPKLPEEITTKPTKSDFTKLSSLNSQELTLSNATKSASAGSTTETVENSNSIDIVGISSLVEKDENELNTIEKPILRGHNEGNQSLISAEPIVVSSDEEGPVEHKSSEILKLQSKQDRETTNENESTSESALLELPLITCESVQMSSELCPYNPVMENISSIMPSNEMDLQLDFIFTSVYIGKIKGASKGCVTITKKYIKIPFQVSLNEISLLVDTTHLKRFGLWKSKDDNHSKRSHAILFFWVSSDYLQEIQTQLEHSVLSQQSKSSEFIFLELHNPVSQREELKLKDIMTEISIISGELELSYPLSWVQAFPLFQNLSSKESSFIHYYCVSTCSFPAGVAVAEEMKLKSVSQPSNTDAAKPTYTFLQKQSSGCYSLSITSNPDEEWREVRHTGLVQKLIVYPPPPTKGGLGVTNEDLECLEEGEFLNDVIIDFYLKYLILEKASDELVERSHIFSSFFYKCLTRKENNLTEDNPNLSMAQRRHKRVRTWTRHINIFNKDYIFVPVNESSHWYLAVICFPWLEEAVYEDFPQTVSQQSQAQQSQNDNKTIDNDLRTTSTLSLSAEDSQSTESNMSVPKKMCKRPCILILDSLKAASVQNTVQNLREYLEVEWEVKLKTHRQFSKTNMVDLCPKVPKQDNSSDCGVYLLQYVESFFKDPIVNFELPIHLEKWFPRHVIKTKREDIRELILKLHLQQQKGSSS

[4] = target: T3, Sentrin-specific protease 7; experiment: SENP7 protease inhibitors, SAR follow-up, biochemical, luminescence, set 2 (AID 588600); type: functional
[5] = target: T4, Nuclear receptor subfamily 0 group B member 1 (Homo sapiens, UniProt P51843); experiment: Luminescence-based cell-based high throughput dose response assay for inhibitors of the orphan nuclear receptor subfamily 0, group B, member 1 (DAX1; NR0B1). [Related pubchem assays (depositor defined):AID504766, AID504790]; type: functional
T4 sequence (P51843 whole entry): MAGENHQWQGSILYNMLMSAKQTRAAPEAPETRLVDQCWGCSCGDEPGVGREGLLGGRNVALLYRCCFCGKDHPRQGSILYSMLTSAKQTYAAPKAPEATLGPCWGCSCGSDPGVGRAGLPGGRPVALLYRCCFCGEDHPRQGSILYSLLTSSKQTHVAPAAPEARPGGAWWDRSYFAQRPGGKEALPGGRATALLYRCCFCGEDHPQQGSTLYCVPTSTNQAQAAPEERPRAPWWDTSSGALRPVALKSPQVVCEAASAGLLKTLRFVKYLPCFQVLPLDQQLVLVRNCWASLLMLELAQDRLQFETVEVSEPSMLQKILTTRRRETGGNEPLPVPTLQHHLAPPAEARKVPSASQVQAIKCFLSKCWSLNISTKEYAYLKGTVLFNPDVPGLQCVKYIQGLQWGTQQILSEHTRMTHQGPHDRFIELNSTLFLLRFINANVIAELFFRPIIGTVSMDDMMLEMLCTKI

[6] = BHK-21 cell cytotoxicity, cytotoxicity control for flavivirus guanylyltransferase probe project, secondary screen (AID 624078); type: functional
Melanocortin receptor 4 = Melanocortin receptor 4 (Homo sapiens, UniProt P32245); experiment: MC4R antagonist potency on cAMP, dose response, cell-based, TR-FRET, biased antagonists (AID 602298); type: functional;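 also: antagonist potency against agonist-stimulated cAMP production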
[7] = growth suppression of beta-catenin-knockout colon cells, dose response, cell-based, HCT116, human colon tumor (AID 1045); type: functional;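 also: HCT116 colon tumor cells with beta catenin knocked out; cells exposed to compound for 60 hours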
[8] = nonselective inhibitors of cellular cAMP signaling, dose response, counter-screen for MC4R biased antagonist project, cell-based, TR-FRET cAMP detection (AID 602305); type: functional;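 also: U2OS cells stimulated with forskolin near its EC80 as the cAMP inducer; potency is for inhibition of forskolin-stimulated cAMP signaling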

Sequence of Nonstructural protein 1 (Q194T2 whole entry): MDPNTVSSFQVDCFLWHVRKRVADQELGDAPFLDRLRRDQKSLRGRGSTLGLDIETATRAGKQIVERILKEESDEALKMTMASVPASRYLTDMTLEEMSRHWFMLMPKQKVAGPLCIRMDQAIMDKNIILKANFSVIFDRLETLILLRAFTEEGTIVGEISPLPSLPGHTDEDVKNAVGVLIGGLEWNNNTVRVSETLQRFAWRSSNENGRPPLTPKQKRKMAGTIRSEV
Sequence of Melanocortin receptor 4 (P32245 whole entry): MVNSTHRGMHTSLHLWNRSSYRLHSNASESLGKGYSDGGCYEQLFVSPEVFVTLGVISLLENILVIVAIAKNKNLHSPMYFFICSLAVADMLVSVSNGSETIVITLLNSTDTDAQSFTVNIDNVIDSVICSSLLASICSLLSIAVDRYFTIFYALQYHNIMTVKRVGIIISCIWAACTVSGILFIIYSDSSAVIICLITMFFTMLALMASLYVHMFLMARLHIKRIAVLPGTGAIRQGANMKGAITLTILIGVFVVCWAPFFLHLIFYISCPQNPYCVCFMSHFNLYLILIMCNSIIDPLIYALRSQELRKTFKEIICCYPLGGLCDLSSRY

SMILES: Cc1cccc(N=Nc2ccc(N(C)C)cc2)c1
- IC50 (Nonstructural protein 1): 31.6 µM (active)

SMILES: COc1ccccc1N1C(=O)Cc2ccccc2C1=O
- AC50 (Caspase-6): 24.2 µM (active)
- IC50 [1]: > 100 µM (inactive)

SMILES: Oc1ccccc1/C=C/c1noc(-c2ccccc2O)n1
- IC50 [2]: > 99 µM (inactive)
- IC50 [3]: 2.5 µM (active)
- IC50 [4]: 43.8 µM (active)
- IC50 [5]: > 67.5 µM (inactive)

SMILES: O=C(O)CSc1cc(NS(=O)(=O)c2ccc(Cl)cc2)c2ccccc2c1O
- CC50 [6]: 7.78 µM (active)

SMILES: Cc1nn(-c2ccccc2)c(Cl)c1CN(C(=O)CCl)c1ccc(Cl)cc1
- IC50 (Melanocortin receptor 4): > 64.6 µM (inactive)
- EC50 [7]: 4.11 µM (active)
- IC50 [8]: > 64.6 µM (inactive)
